System: PD patients with LID
Assay: PD Home Dyskinesia eDiary (good ON time)
Format: in vivo, human
Excerpt: A PD Home Dyskinesia Diary (electronic) would be completed by the patients and/or caregiver with concordance in ON time with dyskinesia between study staff and patient. The diary is integrated in the Kinesia 360 wearable dyskinesia assessment system and is based on the PD Home Diary developed by Hauser (Hauser […]. Parkinson's Disease Home Diary: Further Validation and Implications for Clinical Trials. Mov. Discord. 19 (12), 2004). The diary would be used to score 5 different conditions in 30-minute time intervals during 2×24 hours prior to Visit 2, Visit 6 and Visit 7: • ASLEEP; • OFF; • ON (i.e., adequate control of PD symptoms) without dyskinesia; • ON with non-troublesome dyskinesia; • ON with troublesome dyskinesia.

Compound: Cc1ccc(CNCC2(F)CCN(C(=O)c3ccc(F)c(Cl)c3)CC2)nc1 [NLX-112, (3-chloro-4-fluoro-phenyl)-[4-fluoro-4-{[(5-methyl-pyridin-2-ylmethyl)-amino]-methyl}piperidin-1-yl]methanone]
- good ON time, mean absolute change from baseline (Day 28, n=13, eDiary): +5.7%
- good ON time, significance of change from baseline within or between groups (Day 28 or Day 42): no statistically significant changes
- good ON time, mean absolute change from baseline (Day 42, n=12, eDiary): +5.2%
